What was measured:
[1] = tested on: SRS-A induced contraction of guinea pig ileum; assay: Guinea pig ileum: inhibition of SRS-A induced contraction (isolated tissue); format: cell-based; settings: Cavia porcellus, atropine and chlorpheniramine (1×10^-5 M) present, test drug 5 min before SRS-A, read-out: G.P. Ileum IC50
Procedure: The tissue is exposed to […] histamine at 1-3 minute intervals until a reproducible response is obtained. Atropine (1×10^-5 M) and chloropheniramine (1×10^-5 M) are added followed by 1-2 biological units of SRS-A. After washing the tissue, the response to BaCl2 (1×10^-3 M) was also noted.

[2] = tested on: contraction of guinea pig parenchymal tissue by immunological release of SRS-A; assay: Guinea pig parenchymal strip: inhibition of contraction by immunological release of SRS-A (isolated tissue); format: cell-based; settings: Cavia porcellus; egg albumin challenge of sensitized tissue; chlorpheniramine (10^-5 M), indomethacin (10^-4 M); test compound 30 min before challenge
Procedure: (b) Guinea Pig Parenchymal Strip
The guinea pigs were sacrificed and lungs removed. Strips of subpleural parenchyma were prepared from the left and right diaphragmatic lobes and suspended in a tissue bath under 1 gram of tension. After a one hour equilibration period, a dose response to histamine (10^-7 to 10^-4 M) induced contractions was performed to determine maximal contraction. The tissues were then washed and allowed to relax to baseline. Chlorpheniramine (10^-5 M), indomethacin (10^-4 M) and test compound were added 30 minutes prior to challenge with egg albumin. The response to antigen was measured in milligrams of tension.

Row | SMILES | IC50 [1] [µM] | IC50 [2] [µM]
1 | CCCCCCCCCCC[C@@H](SCCC(=O)OC)[C@H](O)CCCCC(=O)OC (relative stereo) [Example 1, Threo Methyl 6-Hydroxy-7{[2-(methoxycarbonyl)ethyl]thio}octadecanoate] | 1 | > 100
2 | CCCCCCCCCCC[C@@H](SCCC(=O)O)[C@H](O)CCCCC(=O)O (relative stereo) [Example 2, Threo 7-(2-Carboxyethyl)thio-6-hydroxyoctadecanoic Acid] | 9 | 100
3 | CCCCCCCCCCC[C@@H](SCCC(=O)OC)[C@@H](O)CCCCC(=O)OC (relative stereo) [Example 4, Erythro Methyl 6-Hydroxy-7-{[2-(methoxycarbonyl)ethyl]thio}octadecanoate] |  | 1.1
4 | CCCCCCCCCCC[C@@H](SCCC(=O)O)[C@@H](O)CCCCC(=O)O (relative stereo) [Example 5, Erythro 7-(2-Carboxyethyl)thio-6-hydroxyoctadecanoic Acid] | 0.08 | 3.6
5 | CCCCCCCCCCCC(SC[C@H](N)C(=O)OC)C(O)CCCCC(=O)OC (stereo partly drawn) [Example 3, Threo S-(5-Hydroxy-1-methoxycarbonyl-6-heptadecyl)-L-cysteine Methyl Ester] | 14 | > 100
